Patent US20250034216A1, “STEREOSELECTIVE COVALENT LIGANDS FOR ONCOGENIC AND IMMUNOLOGICAL PROTEINS” (The Scripps Research Institute, priority 2021, published 2025)

Columns and labels:
SF3B1 795 = molecular target: T1, SF3B1 795 (Homo sapiens, UniProt O75533); assay: IA-DTB cysteine engagement, GluC + trypsin digest; assay type: binding; conditions: 22Rv1 cells
T1 construct: endogenous in cells; host or cells: 22Rv1
Experimental: (§1) Sample preparation: Cells (adherent: 15 cm dishes, suspension: 2 million cells/mL) were treated with electrophilic probes in situ for indicated times and concentrations, washed with ice-cold PBS, and flash frozen in liquid nitrogen. Cell pellets were lysed by sonication (8 pulses, 40% power) in 500 μL ice-cold PBS supplemented with cOmplete protease inhibitors (1 tablet/10 mL of PBS). Whole cell lysates protein content was measured using a standard DC protein assay (Bio-Rad) and 500 μL (2 mg/mL protein content) were treated with 5 μL of 10 mM 1A-DTB (in DMSO) for 1 h at ambient temperature with occasional vortexing. Samples were methanol-chloroform precipitated with the addition of 500 μL ice-cold MeOH and 200 μL CHCl3, vortexed, and centrifuged (10 min, 10,000 g). Without disrupting the protein disk, both top and bottom layers were aspirated and the protein disk was washed with 1 mL ice-cold MeOH and centrifuged (10 min, 10,000 g). The pellets were allowed to air dry, and then re-suspended in 90 μL buffer (9 M urea, 10 mM DTT, 50 mM TEAB pH 8.5). Samples were reduced by heating at 65 C for 20 minutes and water bath sonicated as needed to resuspend the protein pellets, followed by alkylation via addition of 10 μL (500 mM) iodoacetamide and incubated at 37 C for 30 min with shaking. Samples were briefly centrifuged, and probe sonicated once more to ensure complete resuspension, and then diluted with 300 μL buffer (50 mM TEAB pH 8.5) to reach final concentration of 2 M urea. […] Digested samples were then diluted with 300 μL wash buffer (50 mM TEAB pH 8.5, 150 mM NaCl, 0.2% NP-40) containing streptavidin-agarose beads (50 μL of 50% slurry in wash buffer) and were rotated at room temperature for 2 hours. Enriched samples were pelleted by centrifugation (2000 g, 2 min) and transferred to BioSpin columns and washed (3×1 mL wash buffer, 3×1 mL PBS, 3×1 mL water). Enriched peptides were eluted by 300 μL 50% acetonitrile with 0.1% formic acid and eluate was evaporated to dryness via speedvac. IA-DTB labeled and enriched peptides were resuspended in 100 μL EPPS buffer (200 mM, pH 8.0) with 30% acetonitrile, vortexed, and water bath sonicated. Samples were TMT labeled with 3 μL of corresponding TMT tag (5 mg tag resuspended in 256 μL acetonitrile), vortexed, and incubated at room temperature for 1 hour. TMT labeling was quenched with the addition of hydroxylamine (5 μL 5% solution in H2O) and incubated for 15 minutes at room temperature. Samples were then acidified with 5 μL formic acid, combined and dried using a SpeedVac. Samples were desalted via Sep-Pak and then high pH fractionated.
(§2) Data processing: Cysteine engagement ratios (probe vs DMSO) were calculated for each peptide-spectra match by dividing each TMT reporter ion intensity by the average intensity for the channels corresponding to DMSO treatment. Peptide-spectra matches were then grouped based on protein ID and residue number (e.g., PSME1 C22), […] ion intensities for the DMSO channels <10,000, coefficient of variation for DMSO channels >0.5, […] TMT reporter ion intensities were normalized to the median summed signal intensity across channels.
(§3) Samples were analyzed by liquid chromatography tandem mass-spectrometry using an Orbitrap Fusion mass spectrometer (Thermo Scientific) coupled to an UltiMate 3000 Series Rapid Separation LC system and autosampler (Thermo Scientific Dionex). The peptides were eluted onto a capillary column (75 μm inner diameter fused silica, packed with C18 (Waters, Acquity BEH C18, 1.7 μm, 25 cm)) or an EASY-Spray HPLC column (Thermo ES902, ES903) using an Acclaim PepMap 100 (Thermo 164535) loading column, and separated at a flow rate of 0.25 μL/min. Data was acquired using an MS3-based TMT method on Orbitrap Fusion or Orbitrap Eclipse Tribrid Mass Spectrometers. […]

SF3B1 933 = molecular target: T2, SF3B1 933 (Homo sapiens, UniProt O75533+Q7RTV0); assay: IA-DTB cysteine engagement, GluC + trypsin digest; assay type: binding; conditions: 22Rv1 cells
T2 construct: Cysteine engagement data from 22Rv1 cells treated; endogenous in cells; host or cells: 22Rv1
T2 sequence (O75533 whole entry): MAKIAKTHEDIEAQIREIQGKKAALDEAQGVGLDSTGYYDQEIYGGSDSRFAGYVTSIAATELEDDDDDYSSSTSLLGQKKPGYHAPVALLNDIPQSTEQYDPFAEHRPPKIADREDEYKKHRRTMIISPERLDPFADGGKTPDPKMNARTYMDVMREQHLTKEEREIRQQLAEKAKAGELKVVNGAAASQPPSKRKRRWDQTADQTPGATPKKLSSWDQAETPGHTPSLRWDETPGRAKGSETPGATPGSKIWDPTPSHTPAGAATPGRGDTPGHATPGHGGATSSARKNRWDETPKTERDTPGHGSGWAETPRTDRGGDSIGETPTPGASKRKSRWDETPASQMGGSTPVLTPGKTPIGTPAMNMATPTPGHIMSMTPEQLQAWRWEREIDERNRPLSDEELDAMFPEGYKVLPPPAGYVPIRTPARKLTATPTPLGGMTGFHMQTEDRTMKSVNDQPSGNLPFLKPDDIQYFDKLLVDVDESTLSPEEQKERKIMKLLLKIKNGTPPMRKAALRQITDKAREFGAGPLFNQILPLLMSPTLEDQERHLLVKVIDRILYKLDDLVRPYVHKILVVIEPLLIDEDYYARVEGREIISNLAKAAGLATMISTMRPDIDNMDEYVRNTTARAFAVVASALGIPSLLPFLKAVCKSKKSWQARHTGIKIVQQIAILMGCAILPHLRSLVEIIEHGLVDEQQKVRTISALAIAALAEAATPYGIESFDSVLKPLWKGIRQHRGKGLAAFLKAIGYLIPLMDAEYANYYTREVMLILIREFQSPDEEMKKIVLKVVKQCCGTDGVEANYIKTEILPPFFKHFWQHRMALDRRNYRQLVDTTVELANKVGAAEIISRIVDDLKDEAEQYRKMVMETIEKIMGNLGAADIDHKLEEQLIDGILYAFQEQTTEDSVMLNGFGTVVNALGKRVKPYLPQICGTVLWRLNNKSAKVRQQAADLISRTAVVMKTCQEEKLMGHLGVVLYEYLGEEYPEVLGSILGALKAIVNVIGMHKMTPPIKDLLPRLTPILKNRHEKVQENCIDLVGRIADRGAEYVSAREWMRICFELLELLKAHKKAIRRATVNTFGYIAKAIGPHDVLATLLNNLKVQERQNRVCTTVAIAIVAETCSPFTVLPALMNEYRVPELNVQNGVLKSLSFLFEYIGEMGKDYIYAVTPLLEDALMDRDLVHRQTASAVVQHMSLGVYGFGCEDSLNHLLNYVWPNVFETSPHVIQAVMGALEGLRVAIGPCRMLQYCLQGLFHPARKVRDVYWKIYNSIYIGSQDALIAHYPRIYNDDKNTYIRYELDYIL
T2 sequence (Q7RTV0 whole entry): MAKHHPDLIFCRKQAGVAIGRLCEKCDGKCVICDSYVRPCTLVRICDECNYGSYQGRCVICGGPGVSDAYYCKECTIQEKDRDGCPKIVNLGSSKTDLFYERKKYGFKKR
T2 sequence (Q15393 whole entry partner): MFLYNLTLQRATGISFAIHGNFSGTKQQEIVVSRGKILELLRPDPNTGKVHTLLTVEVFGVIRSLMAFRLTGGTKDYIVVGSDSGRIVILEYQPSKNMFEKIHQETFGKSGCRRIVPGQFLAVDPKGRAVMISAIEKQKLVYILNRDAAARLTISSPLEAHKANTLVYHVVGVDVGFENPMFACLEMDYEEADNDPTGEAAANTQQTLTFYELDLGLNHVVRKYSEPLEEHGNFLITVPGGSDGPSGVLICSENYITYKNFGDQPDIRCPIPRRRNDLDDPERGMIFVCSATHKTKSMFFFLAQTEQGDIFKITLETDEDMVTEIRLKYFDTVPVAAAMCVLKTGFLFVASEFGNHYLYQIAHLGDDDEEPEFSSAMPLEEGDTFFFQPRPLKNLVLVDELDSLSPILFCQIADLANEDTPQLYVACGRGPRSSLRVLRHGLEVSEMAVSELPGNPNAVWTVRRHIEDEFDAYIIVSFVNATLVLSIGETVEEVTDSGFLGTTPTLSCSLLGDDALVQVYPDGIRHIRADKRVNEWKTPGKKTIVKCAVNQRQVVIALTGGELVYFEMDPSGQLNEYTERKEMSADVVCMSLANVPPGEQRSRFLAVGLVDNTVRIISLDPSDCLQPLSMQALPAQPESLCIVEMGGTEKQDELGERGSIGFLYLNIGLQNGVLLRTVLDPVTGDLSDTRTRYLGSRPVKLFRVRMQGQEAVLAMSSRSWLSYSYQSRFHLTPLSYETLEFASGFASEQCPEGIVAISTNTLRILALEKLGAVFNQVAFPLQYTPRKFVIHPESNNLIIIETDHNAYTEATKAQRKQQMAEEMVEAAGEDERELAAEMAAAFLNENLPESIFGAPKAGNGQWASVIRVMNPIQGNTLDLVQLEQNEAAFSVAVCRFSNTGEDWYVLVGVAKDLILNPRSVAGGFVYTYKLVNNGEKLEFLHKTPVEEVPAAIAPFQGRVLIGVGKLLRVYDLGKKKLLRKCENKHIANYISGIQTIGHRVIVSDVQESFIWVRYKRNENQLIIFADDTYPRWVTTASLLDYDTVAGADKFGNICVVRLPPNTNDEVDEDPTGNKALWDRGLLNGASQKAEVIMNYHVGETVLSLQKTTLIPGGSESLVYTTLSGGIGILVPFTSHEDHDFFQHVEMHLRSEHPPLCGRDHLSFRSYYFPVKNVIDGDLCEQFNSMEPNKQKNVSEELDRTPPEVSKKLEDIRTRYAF
T2 sequence (Q9BWJ5 whole entry partner): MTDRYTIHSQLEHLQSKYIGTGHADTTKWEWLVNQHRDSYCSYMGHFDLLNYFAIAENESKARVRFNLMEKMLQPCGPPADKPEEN
Experimental: as §1, §2, §3

[1] = system: mRNA splicing in 22Rv1 cells; assay: RNA sequencing, alternative splicing (rMATS); assay type: cell-based, human; conditions: 8 hr, RNA-seq
Experimental: RNA sequencing libraries were prepared using the NEBNext Ultra II RNA Library Prep Kit for Illumina following manufacturer's instructions (NEB, Ipswich, MA, USA). mRNAs were first enriched with Oligo(dT) beads. Enriched mRNAs were fragmented for 15 minutes at 94° C. First strand and second strand cDNAs were subsequently synthesized. cDNA fragments were end repaired and adenylated at 3′ends, and universal adapters were ligated to cDNA fragments, followed by index addition and library enrichment by limited-cycle PCR. The sequencing libraries were validated on the Agilent TapeStation (Agilent Technologies, Palo Alto, CA, USA), and quantified by using Qubit 2.0 Fluorometer (Invitrogen, Carlsbad, CA) as well as by quantitative PCR (KAPA Biosystems, Wilmington, MA, USA). FASTQ files were first trimmed using Trim_galore (v0.6.4) to remove sequencing adapters and low quality (Q<15) reads. Trimmed sequencing reads were aligned to the human Hg19 reference genome (GENCODE, GRCh37.p13) using STAR (v2.7.5). SAM files were subsequently converted to BAM files, sorted, and indexed using samtools (v1.9). […] Read counting across genomic features was performed using featureCounts (part of the subread package; v1.5.0) using the following parameters: -p -T 20 -O -F GTF -t exon. […]
For quantification of alternative RNA splicing, BAM files generated by STAR/Samtools were analyzed using rMATS (v4.1.1) using the GENCODE (v19) GTF annotation for Hg19 (GRCh37.p13) and the following parameters: -t paired --libType fr-unstranded—readLength 150—novelSS. To utilize reads shorted than 150b.p. resulting from adapter and/or QC trimming by trim_galore, rMATS was programmed to accept soft-clipped reads of variable length. Enumeration of isoform counts was performed using only reads that span the splice junction directly. To identify high confidence AS events, events were considered significant if (i) the inclusion level difference was greater than 20% compared to DMSO, (ii) the False Discovery Rate (FDR) was smaller than 0.05, and (iii) there were a minimum of 20 reads mapping to the splice junction. […]

T1 sequence (O75533 whole entry): as the sequence (O75533 whole entry) above

Row | Compound | percent engagement relative to DMSO, SF3B1 795 (SF3B1 795; 5 uM) | percent engagement relative to DMSO, SF3B1 795 (SF3B1 795; 20 uM) | percent engagement relative to DMSO, SF3B1 933 (SF3B1 933; 5 uM) | percent engagement relative to DMSO, SF3B1 933 (SF3B1 933; 20 uM) | mRNA splicing changes [1]
1 | C=CC(=O)N1[C@H](c2ccc3c(c2)OCO3)c2[nH]c3ccccc3c2C[C@H]1C(=O)N1CCOCC1 [WX-02-23, 1-((1R,3S)-1-(benzo[d][1,3]dioxol-S-yl)-3-(morpholine-4-carbonyl)-1,3,4,9-tetrahydro-2H-pyrido [3,4-b]indol-2-yl)prop-2-en-1-one] | −4.58% | −5.905% | −7.02% | −4.95% | induction of both intron retention and exon skipping events
2 | C=CC(=O)N1[C@@H](c2ccc3c(c2)OCO3)c2[nH]c3ccccc3c2C[C@@H]1C(=O)N1CCOCC1 [WX-02-43, 1-((1S,3R)-1-(benzo[d][1,3]dioxol-5-yl)-3-(morpholine-4-carbonyl)-1,3,4,9-tetrahydro-2H-pyrido [3,4-b]indol-2-yl)prop-2-en-1-one] | 5.715% | 3.145% | 6.345% | 2.595% | No such splicing effects were observed
